# Laboratory results reported in patent US7265152B2 (ViroPharma Incorporated, priority 2002, dated 2007).
# pEC50, pIC50: −log10 of the molar value. Where two headings read alike, the source gives them in different places.
# Legend:
# [1] = system: HCV replicon (BB7 sequence) in Huh-7-Clone A cells; assay: HCV replicon assay: ELISA of NS5A protein in replicon-containing cells (Inhibition of Viral RNA Replication); format: cell-based; conditions: read-out: Replicon
# Summary of the method: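 EC50 taken from an 8-point serially diluted dose curve, with NS5A level as read-out: fixed cells probed with primary monoclonal and HRP-conjugated secondary, TMB developed 30 min, OD 650 nm. Compound exposure 72 h in Huh-7-Clone A replicon cells (BB7 sequence).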
# HCV NS5B = target: T1, HCV NS5B (Hepatitis C virus genotype 1b, UniProt Q9WMX2); assay: Inhibition of viral RNA-dependent RNA polymerase (RdRp), in vitro biochemical assay; parameters: species or system HCV genotype 1b virus (BB7); conditions: read-out: HCV pol-BB7 IC50
# T1 construct: fusion protein, of which the carboxyl terminal 21 amino acids were removed to enhance its solubility; His tag (GSHHHHHH); made in house; host or cells: E. coli
# Summary of the method: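 IC50 values are the concentrations that halve in vitro RNA synthesis by HCV NS5B polymerase. The enzyme was a C-terminally truncated (Δ21), His-tagged genotype 1b (BB7 consensus) protein purified from E. coli.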
# [2] = Hepatitis C virus, HCV replicon assay, ranges of EC50
# [3] = HCV NS5B RdRp, BB7, class symbols A-D
# [4] = Hepatitis C virus, Huh-7-Clone A, NS5A ELISA, 72-hour incubation, ranges of EC50
# [5] = purified His-tagged NS5B (BB7), carboxyl terminal 21 amino acids removed
# [6] = Hepatitis C virus, HCV replicon, range of EC50
# [7] = HCV NS5B RdRp, BB7, reported as range class
# [8] = Hepatitis C virus, ranges of EC50 in HCV replicon assay
# [9] = HCV NS5B RdRp, BB7, activity class
# [10] = Hepatitis C virus, HCV replicon assay, ranges of 50% effective concentration (EC50)
# [11] = HCV NS5B polymerase, BB7 (genotype 1b), values given as range classes A-D
compound,measurement,setting,value
"CNC(=O)c1c(-c2ccc(F)cc2)oc2cc(N(Cc3nnnn3C)S(C)(=O)=O)c(OC(C)C)cc12 [Example 269, 2-(4-Fluoro-phenyl)-5-isopropoxy-6-[methanesulfonyl-(1-methyl-1H-tetrazol-5-ylmethyl)-amino]-benzofuran-3-carboxylic acid methylamide]",pEC50,[1]; [2],> 6.00
same,pIC50,HCV NS5B; [3],≥ 6.30
"CNC(=O)c1c(-c2ccc(F)cc2)oc2cc(C3CNC(=O)O3)c(OC)cc12 (centres unmarked) [Example 48, 2-(4-Fluoro-phenyl)-5-methoxy-6-(2-oxo-oxazolidin-5-yl)-benzofuran-3-carboxylic acid methylamide]",pEC50,[1]; [4],> 5.00
same,pIC50,HCV NS5B; [5],≥ 6.30
"CNC(=O)c1c(-c2ccc(F)cc2)oc2cc(-c3ccncc3)c(OC(C)C)cc12 [Example 177, 2-(4-Fluoro-phenyl)-5-isopropoxy-6-pyridin-4-yl-benzofuran-3-carboxylic acid methylamide]",pEC50,[1]; [6],> 5.00
same,pIC50,HCV NS5B; [7],≥ 6.30
2-(4-Fluoro-phenyl)-6-(1H-imidazol-4-yl)-5-methoxy-benzofuran-3-carboxylic acid methylamide [Example 295],pEC50,"[1]; HCV replicon assay, ranges of EC50",> 5.00
same,pIC50,HCV NS5B; [3],≥ 6.30
"CNC(=O)c1c(-c2ccc(F)cc2)oc2cc(-c3cncnc3)c(OC(C)C)cc12 [Example 147, 2-(4-Fluoro-phenyl)-5-isopropoxy-6-pyrimidin-5-y1-benzofuran-3-carboxylic acid mehtylamide]",pEC50,[1]; [8],> 5.00
same,pIC50,"HCV NS5B; HCV NS5B RdRp, BB7 genotype 1b",≥ 6.30
"CCCOc1cc2c(C(=O)NC)c(-c3ccc(F)cc3)oc2cc1N(CCC)S(C)(=O)=O [Example 338, 2-(4-Fluoro-phenyl)-6-(methanesulfonyl-propyl-amino)-5-propoxy-benzofuran-3-carboxylic acid methylamide]",pEC50,[1]; [2],> 6.00
same,pIC50,HCV NS5B; [9],≥ 6.30
"CNC(=O)c1c(-c2ccc(F)cc2)oc2cc(C(C)(C)NS(C)(=O)=O)c(OC)cc12 [Example 390, 2-(4-Fluoro-phenyl)-6-(1-methanesulfonylamino-1-methyl-ethyl)-5-methoxy-benzofuran-3-carboxylic acid methylamide]",pEC50,[1]; [10],> 5.00
same,pIC50,HCV NS5B; [11],≥ 6.30
"COc1cc2c(C(=O)NC(C)C)c(-c3ccc(F)cc3)oc2cc1-c1c(C)noc1C [Example 379, 6-(3,5-Dimethyl-isoxazol-4-yl)-2-(4-fluoro-phenyl)-5-methoxy-benzofuran-3-carboxylic acid isopropylamide]",pEC50,[1]; [2],< 4.52
same,pIC50,HCV NS5B; [9],5.30 to 6.30
"CNC(=O)c1c(-c2ccc(F)c(O)c2)oc2ccc(OC(C)C)cc12 [Example 105, 2-(4-Fluoro-3-hydroxy-phenyl)-5-isopropoxy-benzofuran-3-carboxylic acid methylamide]",pEC50,[1]; [8],> 4.52
same,pIC50,"HCV NS5B; HCV NS5B RdRp, BB7 genotype 1b",4.52 to 5.30
"CNC(=O)c1c(-c2ccc(F)cc2)oc2cc(N(C3CCC3)S(C)(=O)=O)c(OC(C)C)cc12 [Example 190, 6-(Cyclobutyl-methanesulfonyl-amino)-2-(4-fluoro-phenyl)-5-isopropoxy-benzofuran-3-carboxylic acid methylamide]",pEC50,[1]; [6],> 6.00
same,pIC50,HCV NS5B; [7],≥ 6.30
"CCCOc1cc2c(C(=O)NC)c(-c3ccc(F)cc3)oc2cc1N(C)S(C)(=O)=O [Example 348, 2-(4-Fluoro-phenyl)-6-(methanesulfonyl-methyl-amino)-5-propoxy-benzofuran-3-carboxylic acid methylamide]",pEC50,[1]; [2],> 6.00
same,pIC50,HCV NS5B; [9],≥ 6.30
"CNC(=O)c1c(-c2ccc(F)cc2)oc2cc(C(C)=O)c(O)cc12 [Example 276, 6-Acetyl-2-(4-fluoro-phenyl)-5-hydroxy-benzofuran-3-carboxylic acid methylamide]",pEC50,[1]; [2],> 5.00
same,pIC50,HCV NS5B; [3],5.30 to 6.30
"CNC(=O)c1c(-c2ccc(F)cc2)oc2cc(N(COC)S(C)(=O)=O)c(O)cc12 [Example 444, 2-(4-Fluoro-phenyl)-5-hydroxy-6-(methanesulfonyl-methoxymethyl-amino)-benzofuran-3-carboxylic acid methylamide]",pEC50,[1]; [2],> 5.00
same,pIC50,"HCV NS5B; HCV NS5B RdRp, BB7 (genotype 1b), reported as class symbols",≥ 6.30
"CCc1cc2c(C(=O)NC)c(-c3ccc(F)cc3)oc2cc1N(Cc1cscn1)S(C)(=O)=O [Example 343, 5-Ethyl-2-(4-fluoro-phenyl)-6-(methanesulfonyl-thiazol-4-ylmethyl-amino)-benzofuran-3-carboxylic acid methylamide]",pEC50,[1]; [2],> 6.00
same,pIC50,HCV NS5B; [9],≥ 6.30
"CNC(=O)c1c(-c2ccc(F)cc2)oc2cc(-c3c(C)noc3C)c(OC)cc12 [Example 28, 6-(3,5-Dimethyl-isoxazol-4-yl)-2-(4-fluoro-phenyl)-5-methoxy-benzofuran-3-carboxylic acid methylamide]",pEC50,[1]; [4],> 6.00
same,pIC50,HCV NS5B; [5],≥ 6.30
"CNC(=O)c1c(-c2ccc(F)cc2)oc2cc(N3CC[S+]([O-])CC3)c(OC(C)C)cc12 [Example 188, 2-(4-Fluoro-phenyl)-5-isopropoxy-6-(1-oxo-thiomorpholin-4-yl)-benzofuran-3-carboxylic acid methylamide]",pEC50,[1]; [6],> 5.00
same,pIC50,HCV NS5B; [7],4.52 to 5.30
"CNC(=O)c1c(-c2ccncc2)oc2ccc(OC(C)C)cc12 [Example 27, 5-Isopropoxy-2-pyridin-4-yl-benzofuran-3-carboxylic acid methylamide]",pEC50,[1]; [4],< 4.52
same,pIC50,HCV NS5B; [5],4.52 to 5.30
"CNC(=O)c1c(-c2ccc(F)cc2)oc2cc(N3CCOCC3)c(OCCCl)cc12 [Example 180, 5-(2-Chloro-ethoxy)-2-(4-fluoro-phenyl)-6-morpholin-4-yl-benzofuran-3-carboxylic acid methylamide]",pEC50,[1]; [6],< 4.52
same,pIC50,HCV NS5B; [7],≥ 6.30
"CNC(=O)c1c(-c2ccc(F)cc2)oc2cc(N(C(C)=O)S(C)(=O)=O)c(OC)cc12 [Example 289, 6-(Acetyl-methanesulfonyl-amino)-2-(4-fluoro-phenyl)-5-methoxy-benzofuran-3-carboxylic acid methylamide]",pEC50,[1]; [2],> 6.00
same,pIC50,HCV NS5B; [3],≥ 6.30
"CNC(=O)c1c(-c2ccc(F)cc2)oc2cc(N(Cc3ccc(C(=O)OC)cc3)S(C)(=O)=O)c(OC(C)C)cc12 [Example 270, 4-({[2-(4-Fluoro-phenyl)-5-isopropoxy-3-methylcarbamoyl-benzofuran-6-yl]-methanesulfonyl-amino}-methyl)-benzoic acid methyl ester]",pEC50,[1]; [2],> 6.00
same,pIC50,HCV NS5B; [3],≥ 6.30
"CNC(=O)c1c(-c2ccc(F)cc2)oc2cc(NS(=O)(=O)CCCCl)c(OC(C)C)cc12 [Example 133, 6-(3-Chloro-propane-1-sulfonylamino)-2-(4-fluoro-phenyl)-5-isopropoxy-benzofuran-3-carboxylic acid methylamide]",pEC50,[1]; [8],> 6.00
same,pIC50,"HCV NS5B; HCV NS5B RdRp, BB7 genotype 1b",5.30 to 6.30
"CCN(CC)c1nc(COc2cc3c(C(=O)NC)c(-c4ccc(F)cc4)oc3cc2N(C)S(C)(=O)=O)ns1 [Example 373, 5-(5-Diethylamino-[1,2,4]thiadiazol-3-ylmethoxy)-2-(4-fluoro-phenyl)-6-(methanesulfonyl-methyl-amino)-benzofuran-3-carboxylic acid methylamide]",pEC50,[1]; [2],> 6.00
same,pIC50,HCV NS5B; [9],≥ 6.30
"CNC(=O)c1c(-c2ccc(F)cc2)oc2cc(N3CCCC3)c(OC)cc12 [Example 116, 2-(4-Fluoro-phenyl)-5-methoxy-6-pyrrolidin-1-yl-benzofuran-3-carboxylic acid methylamide]",pEC50,[1]; [8],> 6.00
same,pIC50,"HCV NS5B; HCV NS5B RdRp, BB7 genotype 1b",≥ 6.30
"CNC(=O)c1c(-c2ccc(N)cc2)oc2ccc(OC(C)C)cc12 [Example 99, 2-(4-Amino-phenyl)-5-isopropoxy-benzofuran-3-carboxylic acid methylamide]",pEC50,[1]; [8],> 4.52
same,pIC50,"HCV NS5B; HCV NS5B RdRp, BB7 genotype 1b",5.30 to 6.30
"CNC(=O)c1c(-c2ccc(F)cc2)oc2cc(C(C)(C)O)c(OC(C)C)cc12 [Example 202, 2-(4-Fluoro-phenyl)-6-(1-hydroxy-1-methyl-ethyl)-5-isopropoxy-benzofuran-3-carboxylic acid methylamide]",pEC50,[1]; [6],> 6.00
same,pIC50,HCV NS5B; [7],≥ 6.30
"CCOc1cc(F)ccc1-c1oc2cc(-c3c(C)noc3C)c(OC)cc2c1C(=O)NC [Example 318, 6-(3,5-Dimethyl-isoxazol-4-yl)-2-(2-ethoxy-4-fluoro-phenyl)-5-methoxy-benzofuran-3-carboxylic acid methylamide]",pEC50,[1]; [2],< 4.52
same,pIC50,HCV NS5B; [3],≥ 6.30
"CNC(=O)c1c(-c2ccc(F)cc2)oc2cc(N(C)S(C)(=O)=O)c(OCc3ncc[nH]3)cc12 [Example 405, 2-(4-Fluoro-phenyl)-5-(1H-imidazol-2-ylmethoxy)-6-(methanesulfonyl-methyl-amino)-benzofuran-3-carboxylic acid methylamide]",pEC50,[1]; [10],> 6.00
same,pIC50,HCV NS5B; [11],≥ 6.30
"CNC(=O)c1c(-c2ccc(F)cc2)oc2cc(C3CNC(=O)C3C(=O)NC)c(OC)cc12 (centres unmarked) [Example 278, 4-[2-(4-Fluoro-phenyl)-5-methoxy-3-methylcarbamoyl-benzofuran-6-yl]-2-oxo-pyrrolidine-3-carboxylic acid methylamide]",pEC50,[1]; [2],> 5.00
same,pIC50,HCV NS5B; [3],≥ 6.30
